These results are taken from US7833983B2, “Analytical method and kit thereof” (Phadia, AB, priority 2003, dated 2010).

The subject of one assay is anti-Sm antibodies. Nature of the assay: Epitope-mapping with immobilized oligopeptides (peptide arrays) probed with anti-Sm sera. The class given is binding, human. The note with it: for number of anti-Sm sera recognizing the peptide: panel of five anti-Sm sera (#36, #37, #31, #84, #Sm), serum 1:100, ECL detection. An excerpt: The published sequences of SmD1, P13641, (Rokeach et al., 1988) and SmD3, P43331, (Lehmeier et al., 1994) were used to synthesize overlapping 15 mer peptides with a pipetting robot according to the protocol described by Gausepohl and Behn (2002). The C-terminal extensions of both polypeptides were synthesized with an offset of 2 amino acids (13 amino acids overlap). Each arginine containing peptide was synthesized as three variants, with natural arginine, with sDMA or with asymmetrical dimethylarginine (asDMA) at the respective positions. Later on, a highly reactive peptide of SmD3 was synthesized with certain combinations of natural arginine and sDMA. Following completion of the peptide synthesis non-specific binding sites were blocked by over-night incubation of the membranes in blocking buffer (BB) at room temperature (RT). After one washing step membranes were incubated with serum samples at a dilution of 1:100 in BB for 2 h at RT. Unbound antibodies were removed by three washing steps. For detection peroxidase conjugated goat-anti-human IgG antibody was diluted 1:5000 in BB and incubated for 75 min (RT). Superfluous secondary antibodies were removed by three washing steps. Finally, bound antibodies were visualized using the enhanced chemoluminiscence (ECL) detection-system.
Epitope fine-mapping of the C-terminal extensions of SmD1 and D3. To evaluate the effect of arginine-dimethylation on the antigenicity of SmD1 and SmD3 and to map relevant epitopes on both polypeptides a panel of anti-Sm sera was tested with peptide arrays (15 mer, 2 offset) covering the C-terminal region of SmD1 (P13641) and SmD3 (P43331).

Another assay deals with Lupus-prone mice. The note with it: injection; peptide fused to a carrier protein; Riemekasten et al., 2001; cited from earlier work.

Non-standard residues stand in square brackets, D forms with d. No end group written: not given here. Arg(Me2s) = CN=C(NC)NCCC[C@H](N)C(=O)O

For “AAsdRGsdRGsdRGMGsdRGNIF (AA[Arg(Me2s)]G[Arg(Me2s)]G[Arg(Me2s)]GMG[Arg(Me2s)]GNIF) [peptide no. 77, SmD3 aa 108-122 with all arginines as sDMA]”, the results for the “number of anti-Sm sera recognizing the peptide” value with anti-Sm antibodies and in the assay on anti-Sm antibodies (listed as SEQ ID NO: 3) were “three out of five” and “Three out of five”, respectively.

As for “KREAVAGRGRGRGRG [compound 10, SmD1 array peptide; text describes glycine and DMA repeats]”, the “binding of anti-Sm antibodies (in words)” value in the assay on anti-Sm antibodies (anti-SmD sera #36, #37, #31, #84, #Sm, peptide arrays) is on record as “strong reactivity”.

Turning to “synthetic peptide corresponding to the C-terminal extension of SmD1: literature SmD1 aa 83-119 peptide (Riemekasten et al., 1998) used in an ELISA (VEPKVKSKKREAVAGRGRGRGRGRGRGRGRGRGGPRR; UniProt P62314 83-119, looked up, fragment)”, the “effect on the pathogenic process of Lupus-prone mice” value in the assay on Lupus-prone mice is on record as “accelerate the pathogenic process”.
